Reference: patent publication US11286273B2, “Rhamnolipid compounds and use thereof” (KOREA INSTITUTE OF OCEAN SCIENCE & TECHNOLOGY, priority 2019, dated 2022)

Columns and labels:
Type in all cases: cell-based
HCT-15 = experiment: SRB growth inhibition, HCT-15 (colon cancer); conditions: Homo sapiens, HCT-15, 48 hours
Protocol: (§1) Human cancer cell lines HCT-15 (colon cancer), NUGC-3 (gastric cancer), NCI-H23 (liver cancer), ACHN (kidney cancer), PC-3 (prostate cancer) and MDA-MB-231 (breast cancer) were purchased from American Type Culture Collection (Manassas, Va.).
(§2) Cancer cell lines were cultured in RPMI 1640 supplemented with 10% fetal bovine serum (FBS) in a 5% CO2 humid atmosphere at 37° C. The evaluation of growth inhibitory ability against human cancer cell lines was performed via the Sulforhodamine B (SRB) method. The cells were dispensed into a 96-well plate at a density of 8,000 cells/well, and the next day, cells were treated with compounds 1 to 3 (0.1% DMSO as vehicle control), and treated with a positive control (adriamycin). After incubation for 48 hours, the culture fluid was fixed with 50% trichloroacetic acid ([…]) and stained with 0.4% sulforhodamine B contained in 1% acetic acid. The unbound dye was washed with 1% acetic acid, and the dye bound to the protein was extracted with 10 mM Tris base (pH 10.5) to determine the optical density. The absorbance at 540 nm was determined using a VersaMax microplate reader (Molecular Devices, LLC, Sunnyvale, Calif., USA). The GI50 values were calculated using GraphPad Prism 4.0 software (GraphPad Software, Inc., San Diego, Calif., USA) and shown in Table 3 below.

NUGC-3 = experiment: SRB growth inhibition, NUGC-3 (gastric cancer); conditions: Homo sapiens, NUGC-3, 48 hours
Protocol: as §1, §2

NCI-H23 = experiment: SRB growth inhibition, NCI-H23 (liver cancer); conditions: Homo sapiens, NCI-H23, 48 hours
Protocol: as §1, §2

ACHN = experiment: SRB growth inhibition, ACHN (kidney cancer); conditions: Homo sapiens, 48 hours
Protocol: as §1, §2

PC-3 = experiment: SRB growth inhibition, PC-3 (prostate cancer); conditions: Homo sapiens, PC-3, 48 hours
Protocol: as §1, §2

MDA-MB-231 = experiment: SRB growth inhibition, MDA-MB-231 (breast cancer); conditions: Homo sapiens, MDA-MB-231, 48 hours
Protocol: as §1, §2

Human cancer cell lines = experiment: SRB growth inhibition, panel of six human cancer cell lines (summary); conditions: for GI50: Homo sapiens, range over the six cancer cell lines of Table 3
Protocol: as §1, §2

CC1OC(O[C@H](CCCCCCCCCCCCC[C@@H](C)O)CC(=O)O)C(O)C(O)C1O (stereo in doubt) [Compound 1, 17-hydroxy-3-(3,4,5-trihydroxy-6-methyltetrahydro-2H-pyran-2-yloxy)octadecanoic acid]
GI50 (HCT-15): 41.5 µM | GI50 (NUGC-3): 30.6 µM | GI50 (NCI-H23): 27.5 µM | GI50 (ACHN): 34.2 µM | GI50 (PC-3): 37.8 µM | GI50 (MDA-MB-231): 30.6 µM | GI50 (Human cancer cell lines): 13.7 to 41.5 µM

CC(=O)CCCCCCCCCCCCC[C@H](CC(=O)O)OC1OC(C)C(O)C(O)C1O (stereo in doubt) [Compound 2, 17-oxo-3-(3,4,5-trihydroxy-6-methyltetrahydro-2H-pyran-2-yloxy)octadecanoic acid]
GI50 (HCT-15): 16.7 µM | GI50 (NUGC-3): 19.3 µM | GI50 (NCI-H23): 13.7 µM | GI50 (ACHN): 14.1 µM | GI50 (PC-3): 18.2 µM | GI50 (MDA-MB-231): 40.4 µM | GI50 (Human cancer cell lines): 13.7 to 41.5 µM | activity against cancer cell lines (Human cancer cell lines; summary in words of Table 3): particularly excellent activity

COc1cccc2c1C(=O)c1c(O)c3c(c(O)c1C2=O)C[C@@](O)(C(=O)CO)C[C@@H]3O[C@H]1C[C@H](N)[C@H](O)[C@H](C)O1 [ADR, adriamycin, reference compound]
GI50 (HCT-15): 1.4 µM | GI50 (NUGC-3): 1.5 µM | GI50 (NCI-H23): 1.4 µM | GI50 (ACHN): 1.3 µM | GI50 (PC-3): 1.4 µM | GI50 (MDA-MB-231): 1.5 µM

CC1OC(OC2C(O[C@H](CCCCCCCCCCCCC[C@@H](C)O)CC(=O)O)OC(C)C(O)C2O)C(O)C(O)C1O (stereo partly shown) [Compound 3, 3-(4,5-dihydroxy-6-methyl-3-(3,4,5-trihydroxy-6-methyltetrahydro-2H-pyran-)2-yloxy)tetrahydro-(2H-pyran-2-yloxy)-17-hydroxyoctadecanoic acid]
GI50 (HCT-15): 26.9 µM | GI50 (NUGC-3): 32 µM | GI50 (NCI-H23): 36.9 µM | GI50 (ACHN): 29.1 µM | GI50 (PC-3): 33.3 µM | GI50 (MDA-MB-231): 25.5 µM | GI50 (Human cancer cell lines): 13.7 to 41.5 µM
